# Molecular target: T1, NBD1 (Homo sapiens, UniProt P13569)
# T1 construct: Purified recombinant NBD1 was produced using previously described methods; made in house
# Experiment: Aggregation analysis using differential static light scattering (DSLS), thermal stability of NBD1 (ΔTagg)
# Assay type: binding
# Settings: ΔTagg versus DMSO control, NBD1 0.2 mg/ml
# Description: Example 386. Aggregation Analysis Using Differential Static Light Scattering (DSLS)
# Purified recombinant NBD1 was produced using previously described methods (A. Schmidt, J. L. Mendoza, P. J. Thomas (2011) Biochemical and Biophysical Approaches to Probe CFTR Structure (365-376) M. D. Amaral, K. Kunzelmann (eds.), Cystic Fibrosis, Methods in Molecular Biology 741, Springer Science+Business Media). The effect of test compounds on thermal stability of NBD1 was evaluated by differential static light scattering (DSLS) using the Harbinger Stargazer-384 instrument (Epiphyte Three, Toronto, Canada). Test compounds were dissolved and diluted to desired concentrations in 100% DMSO. The compounds or DMSO controls (100 nL) were stamped into wells of a […] low volume optical plate (Corning Inc., Corning, NY) using the Echo 555 acoustic liquid handler (Labcyte Inc., San Jose, CA).
# NBD1 protein was diluted to 0.2 mg/ml in S200 buffer (50 mM Tris-HCl, 150 mM NaCl, 5 mM MgCl2, 2 mM ATP, 2 mM DTT, pH7.6) containing 1% glycerol. 10 uL of protein solution was aliquoted into the 384-well plate harboring the test compounds and 10 uL mineral oil was overlaid onto the protein solution, using the epMotion robotic liquid handler (Eppendorf North America, Hauppauge, NY). After placing into the Stargazer instrument, the plate was heated at 1° C. per minute to 70° C. Images were captured from 25° C. to 70° C. every 0.5° C. At the end of the experiment run, instrument software integrated image files and analyzed data automatically. A […] regression curve was generated for each well, representing the increase in light scattering over time. A temperature of aggregation (Tagg) was calculated based on the inflection point of the curve. To better compare data across experiments the average Tagg for DMSO control wells was calculated and subtracted from values for wells containing compounds to obtain a “ΔTagg” value. These ΔTagg values reflect stabilizing efficacy of the compounds. As set forth in Table 2 below, an ΔTagg value less than or equal to 5° C. is marked “A”; a value above 5° C. and less than or equal to 10° C. is marked “B”; a value greater than 10° C. and less than or equal to 25° C. is marked “C”.
# T1 sequence (P13569 423-646 limits assumed): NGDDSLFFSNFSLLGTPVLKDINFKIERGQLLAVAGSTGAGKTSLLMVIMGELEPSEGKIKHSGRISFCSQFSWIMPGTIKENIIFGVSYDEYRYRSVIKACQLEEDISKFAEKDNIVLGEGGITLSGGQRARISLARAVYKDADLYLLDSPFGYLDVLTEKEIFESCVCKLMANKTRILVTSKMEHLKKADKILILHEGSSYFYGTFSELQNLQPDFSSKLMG
row,Structure (SMILES),DSLS 3D (100 μM ΔT)
1,"C[C@@H](Cc1cccc(C2CCCC(C)(C)CS(=O)(=O)CCc3c(c(F)cc4[nH]ccc34)Oc3ccc(F)c(c3)-c3c(C#N)cnn32)c1)C(=O)O (mixture of isomers) [Compound 151, (2S)-3-[3-(3-Cyano-23,29-difluoro-11,11-dimethyl-13,13-dioxo-25-oxa-13λ6-thia-5,6,20-triazapentacyclo[24.3.1.02,6.016,24.017,21]triaconta-1(30),2,4,16,18,21,23,26,28-nonaen-7-yl)phenyl]-2-methyl-propanoic Acid]",A (an ΔTagg value less than or equal to 5 °C is marked “A”)
2,"C[C@@H](Cc1cccc(C2CCCC(C)(C)CS(=O)(=O)CCc3c(c(F)cc4[nH]ccc34)Oc3ccc(F)c(c3)-c3nn2cc3C#N)c1)C(=O)O (mixture of isomers) [Compound 152, (2S)-3-[3-(3-Cyano-22,28-difluoro-10,10-dimethyl-12,12-dioxo-24-oxa-12λ6-thia-5,19,30-triazapentacyclo[23.3.1.12,5.015,23.016,20]triaconta-1(29),2(30),3,15,17,20,22,25,27-nonaen-6-yl)phenyl]-2-methyl-propanoic Acid]",C (a value greater than 10 °C and less than or equal to 25 °C is marked “C”)
3,"C[C@H](Cc1cccc(C2NCC(F)(F)CCS(=O)(=O)CCc3c(c(F)c(F)c4[nH]ccc34)Oc3ccc(F)c(c3)-c3nc2nn3C)c1)C(=O)O (mixture of isomers) [Compound 380, (2R)-2-Methyl-3-[3-(9,9,21,22,28-pentafluoro-3-methyl-12,12-dioxo-24-oxa-12λ6-thia-3,4,7,19,30-pentazapentacyclo[23.3.1.12,5.015,23.016,20]triaconta-1(29),2(30),4,15,17,20,22,25,27-nonaen-6-yl)phenyl]propanoic Acid]",A (an ΔTagg value less than or equal to 5 °C is marked “A”)
4,"CC1(C)CS(=O)(=O)CCc2c(c(F)cc3[nH]ccc23)Oc2ccc(F)c(c2)-c2ccnn2C(c2cccc(CCC(=O)O)c2)CCO1 (single isomer, unassigned) [Compound 88, 3-[3-(23,29-Difluoro-11,11-dimethyl-13,13-dioxo-10,25-dioxa-13λ6-thia-5,6,20-triazapentacyclo[24.3.1.02,6.016,24.017,21]triaconta-1(30),2,4,16,18,21,23,26,28-nonaen-7-yl)phenyl]propanoic Acid]",A (an ΔTagg value less than or equal to 5 °C is marked “A”)
5,"Cn1nc2nc1-c1cc(ccc1F)Oc1c(F)cc3[nH]ccc3c1CCS(=O)(=O)CC(C)(C)COCC2(C)c1cccc(CCC(=O)O)c1 (single isomer, unassigned) [Compound 89A, 3-[3-(22,28-difluoro-3,6,10,10-tetramethyl-12,12-dioxo-8,24-dioxa-12λ6-thia-3,4,19,30-tetrazapentacyclo[23.3.1.12,5.015,23.016,20]triaconta-1(29),2(30),4,15,17,20,22,25,27-nonaen-6-yl)phenyl]propanoic Acid]",C (a value greater than 10 °C and less than or equal to 25 °C is marked “C”)
6,"Cn1nc2nc1-c1cc(ccc1F)Oc1c(F)cc3[nH]ccc3c1CCS(=O)(=O)CC(C)(C)COCC2(C)c1cccc(CCC(=O)O)c1 (single isomer, unassigned) [Compound 89B, 3-[3-(22,28-difluoro-3,6,10,10-tetramethyl-12,12-dioxo-8,24-dioxa-12λ6-thia-3,4,19,30-tetrazapentacyclo[23.3.1.12,5.015,23.016,20]triaconta-1(29),2(30),4,15,17,20,22,25,27-nonaen-6-yl)phenyl]propanoic Acid]",A (an ΔTagg value less than or equal to 5 °C is marked “A”)
7,"Cn1nc2nc1-c1cc(ccc1F)Oc1c(F)cc3[nH]ccc3c1CCS(=O)(=O)CC(C)(C)CCCC2(C)c1cccc(C(O)CO)c1 (single isomer, unassigned) [Compound 90A, 1-[3-(22,28-difluoro-3,6,10,10-tetramethyl-12,12-dioxo-24-oxa-12λ6-thia-3,4,19,30-tetrazapentacyclo[23.3.1.12,5.015,23.016,20]triaconta-1(29),2(30),4,15,17,20,22,25,27-nonaen-6-yl)phenyl]ethane-1,2-diol]",C (a value greater than 10 °C and less than or equal to 25 °C is marked “C”)
8,"Cn1nc2nc1-c1cc(ccc1F)Oc1c(F)cc3[nH]ccc3c1CCS(=O)(=O)CC(C)(C)CCCC2(C)c1cccc(C(O)CO)c1 (single isomer, unassigned) [Compound 90B, 1-[3-(22,28-difluoro-3,6,10,10-tetramethyl-12,12-dioxo-24-oxa-12λ6-thia-3,4,19,30-tetrazapentacyclo[23.3.1.12,5.015,23.016,20]triaconta-1(29),2(30),4,15,17,20,22,25,27-nonaen-6-yl)phenyl]ethane-1,2-diol]",A (an ΔTagg value less than or equal to 5 °C is marked “A”)
9,"CC(Cc1cccc(C2(CNCC(F)F)CCCC(C)(C)CS(=O)(=O)CCc3c(c(F)cc4[nH]ccc34)Oc3ccc(F)c(c3)-c3nc2nn3C)c1)C(=O)O (single isomer, unassigned) [Compound 137A, 3-[3-[6-[(2,2-difluoroethylamino)methyl]-22,28-difluoro-3,10,10-trimethyl-12,12-dioxo-24-oxa-12λ6-thia-3,4,19,30-tetrazapentacyclo[23.3.1.12,5.015,23.016,20]triaconta-1(29),2(30),4,15,17,20,22,25,27-nonaen-6-yl]phenyl]-2-methyl-propanoic Acid]",C (a value greater than 10 °C and less than or equal to 25 °C is marked “C”)
10,"C[C@@H](Cc1cncc(C2(C)CCCC(C)(C)CS(=O)(=O)CCc3c(c(F)cc4[nH]ccc34)Oc3ccnc(c3)-c3nc2nn3C)c1)C(=O)O (single isomer, unassigned) [Compound 299A]",A (an ΔTagg value less than or equal to 5 °C is marked “A”)
11,"C[C@@H](Cc1cncc(C2(C)CCCC(C)(C)CS(=O)(=O)CCc3c(c(F)cc4[nH]ccc34)Oc3ccnc(c3)-c3nc2nn3C)c1)C(=O)O (single isomer, unassigned) [Compound 299B]",B (a value above 5 °C and less than or equal to 10 °C is marked “B”)
12,"C[C@@H](Cc1cncc(C2(C)CCCC(C)(C)CS(=O)(=O)CCc3c(c(F)c(F)c4[nH]ccc34)Oc3ccnc(c3)-c3nc2nn3C)n1)C(=O)O (single isomer, unassigned) [Compound 300A]",A (an ΔTagg value less than or equal to 5 °C is marked “A”)
13,"C[C@@H](Cc1cncc(C2(C)CCCC(C)(C)CS(=O)(=O)CCc3c(c(F)c(F)c4[nH]ccc34)Oc3ccnc(c3)-c3nc2nn3C)n1)C(=O)O (single isomer, unassigned) [Compound 300B]",A (an ΔTagg value less than or equal to 5 °C is marked “A”)
14,"Cn1nc2nc1-c1cc(ccc1F)[S+]([O-])c1c(F)cc3[nH]ccc3c1CCS(=O)(=O)CC(C)(C)CCC[C@]2(C)c1cccc([C@H](O)CO)c1 (single isomer, unassigned) [Compound 302B]",B (a value above 5 °C and less than or equal to 10 °C is marked “B”)
15,"Cn1nc2nc1-c1cc(ccc1F)[S+]([O-])c1c(F)c(F)c3[nH]ccc3c1CCS(=O)(=O)CC(C)(C)CCC[C@]2(C)c1cccc(CC2(C(=O)O)CC2)c1 (single isomer, unassigned) [Compound 303B]",A (an ΔTagg value less than or equal to 5 °C is marked “A”)
16,"Cn1nc2nc1-c1cc(ccn1)[S+]([O-])c1c(F)c(F)c3[nH]ccc3c1CCS(=O)(=O)CC(C)(C)CCC[C@]2(C)c1cccc(CC2(C(=O)O)CC2)c1 (single isomer, unassigned) [Compound 309]",B (a value above 5 °C and less than or equal to 10 °C is marked “B”)
17,"C[C@@H](Cc1cccc(C2(C)CCCC(C)(C)CS(=O)(=O)CCc3c(c(F)cc4[nH]ccc34)Sc3ccnc(c3)-c3nc2nn3C)n1)C(=O)O (single isomer, unassigned) [Compound 314A]",A (an ΔTagg value less than or equal to 5 °C is marked “A”)
18,"C[C@@H](Cc1cccc(C2(C)CCCC(C)(C)CS(=O)(=O)CCc3c(c(F)cc4[nH]ccc34)Sc3ccnc(c3)-c3nc2nn3C)n1)C(=O)O (single isomer, unassigned) [Compound 314B]",B (a value above 5 °C and less than or equal to 10 °C is marked “B”)
19,"C[C@@H](Cc1cccc(C2(C)CCCC(C)(C)CS(=O)(=O)CCc3c(c(F)cc4[nH]ccc34)[S+]([O-])c3ccnc(c3)-c3nc2nn3C)n1)C(=O)O (single isomer, unassigned) [Compound 315A]",A (an ΔTagg value less than or equal to 5 °C is marked “A”)
20,"C[C@@H](Cc1cccc(C2(C)CCCC(C)(C)CS(=O)(=O)CCc3c(c(F)cc4[nH]ccc34)[S+]([O-])c3ccnc(c3)-c3nc2nn3C)n1)C(=O)O (single isomer, unassigned) [Compound 315B]",A (an ΔTagg value less than or equal to 5 °C is marked “A”)

# — patent US12649750B2, “Macrocyclic compounds, compositions, and methods of using thereof” (Sionna Therapeutics Inc., priority 2022, dated 2026)
